Among the test systems are DLD-1 colon; DMS 114 small cell lung; HOP-18 NSCLC; KM20L2 colon; M19-MEL melanoma; SN12K1 renal; SNB-78 CNS; XF 498 CNS; LXFL 529 NSCLC; RXF-631 renal.
Common to all, as to assay: DTP human tumour cell line panel, 48 h

“And” between values parts separate entries of the source, which are not always exact repeats. Equal entries are not always repeated.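 A five-concentration, 48-hour dose response in 96-well plates underlies each endpoint, interpolated linearly between surrounding concentrations. GI50 is the concentration that inhibits growth by half. Definition used: TGI = concentration required for complete inhibition of growth.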 Bounds are passed on as bounds.

One may read the TGI as the concentration giving total growth inhibition. Higher therefore signals lower sensitivity of the cells. Turning to `C=C1C(=O)OC2C1CC1OC2C(C)CCC/C(C)=C\CCC1(C)O` (stereo not drawn), the total growth inhibition concentration (TGI) in the assay with DLD-1 colon stood at 64.8 µM; in the assay on DMS 114 small cell lung, 33 µM; in the assay on HOP-18 NSCLC it was 19.7 µM; in the assay with KM20L2 colon, 81.9 µM; in the assay on M19-MEL melanoma, 29 µM; in the assay on SN12K1 renal it was 40.2 µM. In addition, the TGI came to 42.9 µM in the assay on SNB-78 CNS and 38.9 µM in the assay with XF 498 CNS.
With `O=C(c1ccccc1)c1ccc2c(c1)N=C(c1ccc(Cl)c(Cl)c1)CC(c1ccc3ccccc3c1)N2` (stereo not drawn), the TGI in the assay on DLD-1 colon, in the assay with DMS 114 small cell lung, in the assay on KM20L2 colon, with LXFL 529 NSCLC, with M19-MEL melanoma and in the assay on RXF-631 renal was > 100 µM each time. For the same compound, the TGI in the assay on SNB-78 CNS and in the assay with XF 498 CNS was > 100 µM each time.
One may read the GI50 as the concentration at which growth is held to half of that of the control. Turning to `O.O=[Se](=O)(O)O.[NH-]C1CCCCC1[NH-].[Pt+2]` (stereo not drawn), the GI50 in the assay on DLD-1 colon is 19 µM; with HOP-18 NSCLC, > 100 µM; with SN12K1 renal, > 30.4 µM; in the assay with SNB-78 CNS, 48.4 µM. Moreover, the TGI in the assay with DLD-1 colon is > 100 µM; in the assay with HOP-18 NSCLC, > 100 µM; in the assay on KM20L2 colon, > 100 µM; in the assay with M19-MEL melanoma, > 75.6 µM; in the assay with SN12K1 renal, > 100 µM; in the assay with SNB-78 CNS it was > 100 µM.
Consider `CC1Oc2c(c(O)cc3oc(=O)cc(-c4ccccc4)c23)C(=O)C1C` (stereo not drawn), for which the TGI in the assay with DLD-1 colon, in the assay with HOP-18 NSCLC, in the assay with KM20L2 colon, with LXFL 529 NSCLC, with RXF-631 renal and with SNB-78 CNS was > 100 µM each time. For the same compound, the TGI with XF 498 CNS was > 100 µM.
In the case of `Nc1ncnc2c(C3OC(CO)C(O)C3O)c[nH]c12` (stereo not drawn), the TGI in the assay with DLD-1 colon is 0.0413 µM; with DMS 114 small cell lung it was 0.0304 µM and 0.0184 µM; in the assay on HOP-18 NSCLC it was 0.497 µM and 1.34 µM; in the assay with KM20L2 colon, 1.1 µM; with LXFL 529 NSCLC, 0.189 µM and 0.153 µM; with M19-MEL melanoma, 0.196 µM and 0.423 µM. Besides, the TGI is 0.56 µM and 0.533 µM with RXF-631 renal; 1.12 µM in the assay with SNB-78 CNS; 0.168 µM in the assay on XF 498 CNS.
Turning to `COc1cccc2c1C(=O)c1c(O)c3c(c(O)c1C2=O)C[C@](O)(C(=O)CO)CC3OC1CC(N)C(OC2CCCCO2)C(C)O1` (stereo partly drawn), the TGI came out at 12.5 µM in the assay on DLD-1 colon; 3 µM with HOP-18 NSCLC; 4.84 µM in the assay with KM20L2 colon; 0.879 µM in the assay on SN12K1 renal; 6.02 µM with SNB-78 CNS; 0.684 µM with XF 498 CNS.
For `COc1ccc(/C(Cl)=C(\C=O)c2ccc(Cl)cc2)cc1`, the TGI was > 100 µM with DLD-1 colon; 32.5 µM in the assay on DMS 114 small cell lung; > 100 µM with HOP-18 NSCLC; 33.2 µM in the assay on KM20L2 colon; 51 µM with LXFL 529 NSCLC; 75.4 µM with M19-MEL melanoma. For the same compound, the figures for the TGI with RXF-631 renal and with SNB-78 CNS were 47.6 µM and > 100 µM, respectively.
On to `O=c1c2cc(Cl)ccc2n2nnc3ccc(NCCNCCO)c1c32`, for which the TGI with DLD-1 colon was 5.76 µM; in the assay on DMS 114 small cell lung, 3.59 µM; in the assay on KM20L2 colon, 2.72 µM; with LXFL 529 NSCLC, 3.51 µM; in the assay on M19-MEL melanoma, 3.28 µM; in the assay on RXF-631 renal, 3.05 µM. In addition, the TGI in the assay on SNB-78 CNS was 9.39 µM.
With `O=C1/C(=C/c2ccc(Cl)c(Cl)c2)CN(C(=O)CCN2CCOCC2)C/C1=C\c1ccc(Cl)c(Cl)c1`, the GI50 in the assay with DLD-1 colon was 0.245 µM; in the assay on DMS 114 small cell lung, 0.346 µM; in the assay with HOP-18 NSCLC it was 2.11 µM; with KM20L2 colon it was 1.82 µM; with LXFL 529 NSCLC it was 0.499 µM; with M19-MEL melanoma, 1.09 µM. For the same compound, the GI50 was 1.99 µM with RXF-631 renal and 2.22 µM in the assay with SNB-78 CNS. Moreover, the TGI is 0.409 µM and 0.785 µM with DLD-1 colon; 2.34 µM and 1.33 µM with DMS 114 small cell lung; 5.96 µM and 5.49 µM in the assay on HOP-18 NSCLC; 2.79 µM and 4.01 µM in the assay with KM20L2 colon; 2.99 µM and 1.63 µM with LXFL 529 NSCLC; 3 µM and 2.4 µM in the assay with M19-MEL melanoma. Also, the TGI in the assay on RXF-631 renal was 8.25 µM and 5.87 µM; in the assay on SNB-78 CNS, 9.93 µM and 6.3 µM.
Consider `CCC[CH2][Ge]([CH2]CCC)([CH2]CCC)[O]C(=O)CCl`, for which the GI50 with DLD-1 colon is 0.122 µM; in the assay with DMS 114 small cell lung, 0.316 µM; with HOP-18 NSCLC, 11.7 µM; in the assay with KM20L2 colon, 2.95 µM; with LXFL 529 NSCLC, 1.98 µM; in the assay with M19-MEL melanoma it was 11.1 µM. In addition, in the assay on XF 498 CNS, the GI50 was 8.63 µM. The TGI in the assay with DLD-1 colon is 15.7 µM; in the assay with DMS 114 small cell lung it was 10.2 µM; in the assay on HOP-18 NSCLC it was 24 µM; in the assay with KM20L2 colon, 23.5 µM; with LXFL 529 NSCLC it was 17.1 µM; in the assay on M19-MEL melanoma it was 23.2 µM. This compound returned a TGI in the assay with XF 498 CNS of 21.1 µM.

For the origin of these results see PubChem BioAssay (NCI).
